Active and inactive are the calls of the source. The rule behind the calls is not given here.
Key:
[1] = target: Protein kinase C (PKC) (Rattus norvegicus) (UniProt P05696+P68403+P09216+P63319+P09215+Q64617+Q9WTQ0+P09217); experiment: Antagonist activity against protein Kinase C; format: functional
HL-60 [2] = experiment: Compound was tested for the inhibition of the growth of HL60 cells at a concentration 10E-4 M; reduction of growth was observed; format: functional; details: Homo sapiens
HL-60 [3] = experiment: Compound was tested for the inhibition of the growth of HL60 cells at a concentration 10E-4 M; NS no significant affect is observed; format: functional, cell-based; details: Homo sapiens

Row | Compound | Activity [1] | inhibition at 100 µM (HL-60 [2]) [%] | Activity (HL-60 [3])
1 | CCCCCCCOC(=O)O[C@H]1OC(=O)[C@H](O)[C@@H]1OC(=O)OCCCCCCC | inactive |  | 
2 | CCCCCCCOC(=O)O[C@@H]1[C@@H](CO)OC(=O)[C@@H]1OC(=O)OCCCCCCC | inactive |  | 
3 | CCCCCCCOC(=O)O[C@H]1OC(=O)C[C@@H]1O |  |  | inactive

Second part, led by results:

Row | Activity [1] | Compound | inhibition at 100 µM (HL-60 [2]) [%] | Activity (HL-60 [3])
4 | inactive | CCCCCCCOC(=O)O[C@H]1OC(=O)[C@H](O)[C@@H]1O |  | 
5 | inactive | CCCCCCCOC(=O)O[C@H]1CC(=O)O[C@@H]1CO | 20 | 
